These results are taken from patent US11413324B2, “Compositions and methods for treating peripheral nerve disease, disorders, and injuries” (University of Virginia Patent Foundation, priority 2017, dated 2022).

“Also recorded” adds a separate entry of the source. Counter-ions that a name gives are not always drawn. A value given as a limit tells only on which side of the number the result lay.

The test system of series [1] is peripheral olig2^+ cells. Description: Chemical screen of the LOPAC 1280 library: peripheral olig2+ cells scored in olig2:dsred larvae at 72 hpf. It counts as in vivo, zebrafish. The note with it: 4 μM, 24 to 72 hpf, pilot experiment, positive control.
The test system of series [2] is perineurial glia (PG). The note with it: 1.25 μm CGS-15943, 36 to 55 hpf.
In series [3] the test system is MEP glia. Nature of the series: Presence of MEP glia (sox10+/olig2+ cells, wif1 in situ hybridization) on motor nerves. It counts as in vivo, zebrafish. The note with it: for percentage of motor nerves with sox10+/olig2+ MEP glia at the MEP TZ: 36 to 72 hpf, vs DMSO, p=0.14. On the procedure: Larvae were fixed in 4% PFA at 4° C. overnight and stored in 100% methanol at −20° C. and processed for in situ RNA hybridization. Plasmids were linearized with appropriate restriction enzymes and cRNA preparation was carried out using Roche DIG-labeling reagents and RNA polymerases (NEB). We used a previously published probe for wif1 (Smith et al., 2014). After in situ hybridization, embryos were embedded in 1.5% agarose/30% sucrose and frozen in 2-methylbutane chilled by immersion in liquid nitrogen. We collected 20 μm transverse sections on microscope slides using a cryostat microtome and covered with 75% glycerol. Images were obtained using a Zeiss AxioObserver inverted microscope using a 40× oil immersion objective. All images were imported into Adobe Photoshop. Adjustments were limited to levels, contrast, and cropping.
We therefore sought to determine whether antagonizing the A2a AR lead to ectopic OPC migration simply by perturbing MEP glial development. MEP glia can be identified by the co-expression of sox10:eos and olig2:dsred as well as expression of wnt inhibitory factor 1 (wif1) (Smith et al., 2014).

Series [4] has as its system OPC migration through the MEP TZ. The note with it: 10 μM, 24 to 72 hpf, 3 larvae imaged 55 to 72 hpf. On the procedure: Embryos were anesthetized with 0.01% 3-aminobenzoic acid ester (Tricaine), immersed in 0.8% low-melting point agarose and mounted laterally in glass-bottomed 35 mm petri dishes (Electron Microscopy Sciences). After mounting, the petri dish was filled with egg water containing PTU and Tricaine. For some experiments, chemical compounds were also dissolved in the water. A 25× multi-immersion objective (NA=0.8), 40× oil objective (NA=1.4) and a 40× water objective (NA=1.1) mounted on a motorized Zeiss AxioObserver ZI microscope equipped with a Quorum WaveFX-XI spinning disc confocal system (Quorum Technologies Inc.) were used to capture images. Image processing was performed with MetaMorph and Photoshop to enhance brightness and contrast of images. The Fiji plugin MTrackJ was used to annotate time-lapse movies (Meijering et al., 2012).
In order to distinguish OPCs from motor neurons, we used embryos expressing olig2:dsred and sox10:eos, where sox10 regulatory elements drive expression of Eos in central and peripheral glia. […] We treated these embryos with 10 μM of CGS-15943 from 24 to 72 hpf and imaged 3 larvae (10 nerves total) from 55 to 72 hpf.

Series [5] concerns peripheral olig2^+ OPCs. Description: Quantification of peripheral olig2+ OPCs at 3 dpf in drug-treated olig2:dsred larvae. It counts as in vivo, zebrafish. The conditions noted are these: for number of peripheral olig2+ OPCs: 24 to 72 hpf; for peripherally migrated OPCs at 3 dpf after neurotransmitter receptor antagonist: compared to control.
The test system of series [6] is Eos^+ cells. Description: Number of Eos+ cells (Schwann cells and MEP glia) per motor nerve in sox10:eos larvae. In kind it is in vivo, zebrafish. The note with it: 36 to 72 hpf, 72 hpf sox10:eos larvae, p=0.08.
The test system of series [7] is peripheral OPCs myelinating spinal motor axons. Description: gpr126 mutant peripheral neuropathy model: peripheral OPCs and myelination of spinal motor nerves. In kind it is in vivo, zebrafish. From the text:
This led us to hypothesize that OPCs could be pharmacologically recruited onto peripheral nerves in order to myelinate them. […] However, in these studies, OPCs populated the nerve in the context of genetic mutations resulting in the death or absence of both SCs and MEP glia. Therefore, we wanted to determine if it was possible to recruit OPCs to myelinate peripheral motor nerves in a model more closely resembling human peripheral neuropathies, in which SCs are present, but fail to myelinate. To do this, we used zebrafish harboring a mutation in g protein coupled receptor 126 (gpr126), a model of peripheral neuropathy in which SCs ensheath, but fail to myelinate peripheral nerves (Monk et al., 2009). OLs are present in normal numbers in these mutants, and central myelination is completely normal (Monk et al., 2009).
Therefore, we tested whether treatment with the A2a AR antagonist would result in peripherally-migrated OPCs ensheathing peripheral spinal motor nerves in these mutants. […] We then performed in vivo, time-lapse imaging on nkx2.2a:megfp;olig2:dsred;gpr126^−/− mutants in order to visualize whether these peripheral OPCs initiated myelination of peripheral nerves. The transgene nkx2.2a:megfp is expressed by pre-myelinating OPCs and enables clear visualization of membrane structures (Kucenas et al., 2008a). No other cells in the spinal cord or at the MEP TZ express both nkx2.2a and olig2, so use of these transgenes allowed us to unambiguously identify membrane sheaths coming from OPCs. […] Thin OPC membrane processes extended toward peripheral motor axons and formed membrane sheaths around them (FIG. 6D). The timing of sheath initiation on peripheral axons coincided with sheath initiation within the spinal cord, and some peripheral sheaths stabilized and elongated during the course of the time-lapse (FIG. 6D). This time-lapse data rules out the possibility that SCH-58261 treatment stimulates SCs to myelinate the nerve, since nkx2.2a^+ OPC processes can be clearly seen ensheathing nerve segments.
To examine whether these membrane sheaths were in fact myelin, we treated gpr126 mutants from 36 to 72 hpf with SCH-58261 or DMSO, fixed larvae at 4 dpf, and labeled with an antibody specific to myelin basic protein (MBP) using immunohistochemistry (Kucenas et al., 2009). In mutants treated with DMSO, we observed MBP only on a short segment of the proximal nerve root (FIG. 6E), which is consistent with our previous data showing that differentiated MEP glia express MBP in this region (Smith et al., 2014). […] As further confirmation that peripheral OPCs myelinate spinal motor nerve roots following treatment with SCH-58261, we imaged gpr126^−/− larvae expressing the transgenes mbp:egfp and olig2:dsred from 72 to 86 hpf (n=3) (FIG. 6F). In these time-lapses, we observed olig2^+ OPCs beginning to ensheath peripheral nerves with mbp^+ membrane tubes. Out of 12 nerves imaged, OPCs migrated out of the spinal cord onto 4 nerves, and an additional 3 nerves had OPCs already present at the beginning of the time-lapse. Multiple EGFP^+ membrane tubes extended from single OPCs and ensheathed most of the nerve root on all 7 nerves with OPCs present. These long membrane tubes were consistent with the pattern of MBP antibody labeling on the nerves of SCH-58261-treated mutants (FIG. 6E). Both the MBP antibody and mbp:egfp labeling were closely associated with an olig2^+ cell body, providing further evidence that peripherally-migrated OPCs and not SCs, initiate myelination in gpr126 mutants treated with SCH-58261 (FIGS. 6D&E). From these experiments, we conclude that OPCs can be recruited onto peripheral motor nerves and initiate myelination, even in the presence of MEP glia and SCs.

In series [8] the test system is larvae. Description: Toxicity, death or morphological defects of treated or injected larvae. The note with it: 40 μM, 36 to 72 hpf, n=1 survivor.
Setting [9] is: dose responses of selective A1, A2b, A3 antagonists.
Setting [10] is: gpr126−/− mbp:egfp;olig2:dsred, imaged 72 to 86 hpf, 12 nerves imaged.

For the compound `COc1cc2ncnc(Nc3cccc(Cl)c3)c2cc1OC` [AG1478], the “peripheral OPC migration” value in series [1] is “robust peripheral OPC migration”.

On to `Nc1nc2ccc(Cl)cc2c2nc(-c3ccco3)nn12` [CGS-15943, 9-Chloro-2-(2-furanyl)-[1,2,4]triazolo[1,5-c]quinazolin-5-amine], for which the “PG extension from the spinal cord along the motor nerve (mean SEM)” value in series [2] (55 hpf larvae, 10 nerves per larva) stood at 24.94±1.75 μm. Also, in series [2] (p=0.28), the “PG extension compared with DMSO-treated larvae” value is listed as “no difference in PG extension”. Moreover, in series [3] (1.25 μM), the “wif1+ MEP glia (in situ hybridization)” value is listed as “observed wif1^+ MEP glia; also recorded: have wif1^+ MEP glia” and the “percentage of motor nerves with sox10+/olig2+ MEP glia at the MEP TZ” value is “no differences”. In series [4], the “OPCs migrating through a single MEP TZ” value was no more than 2, the “nerves on which OPC cell bodies migrated onto peripheral spinal motor nerves during imaging” value is 6 out of 10, the “nerves on which OPCs extend membrane processes through the MEP TZ” value is listed as 9 out of 10 and the “nerves with OPCs already present before 60 hpf” value was 3 out of 10. Also, the “nerves with olig2+/sox10− motor neurons in the periphery” value in series [4] was 0 out of 10. In series [5] (doses of 1.25 and 20 μM, p<0.01), the “number of peripheral olig2+ OPCs” value is given as “significant peripheral OPC migration”.

As for `Cn1c(=O)c2[nH]c(C3CCCC3)nc2n(C)c1=O` [CPT, 8-cyclopentyltheophylline], the “number of peripheral olig2+ OPCs” value in series [5] (setting [9]) is “did not observe peripheral OPCs”.

Take `C[C@]12N[C@H](Cc3ccccc31)c1ccccc12` [MK-801, (5S,10R)-(+)-5-Methyl-10,11-dihydro-5H-dibenzo[a,d]cyclohepten-5,10-imine maleate]: the “peripherally migrated OPCs at 3 dpf after neurotransmitter receptor antagonist” value in series [5] (36 to 72 hpf, olig2:dsred) is recorded as “resulted in peripheral OPC migration”.

For the compound `CCOC(=O)C1=C(C)NC(c2ccccc2)=C(C(=O)OCc2ccccc2)C1C#Cc1ccccc1` (stereo not drawn) [MRS-1191], in series [5] (setting [9]), the “number of peripheral olig2+ OPCs” value was “did not observe peripheral OPCs”.

Take `CCCn1c(=O)c2[nH]c(-c3ccc(OCC(=O)Nc4ccc(C#N)cc4)cc3)nc2n(CCC)c1=O` [MRS-1754]: in series [5] (setting [9]), the “number of peripheral olig2+ OPCs” value is “did not observe peripheral OPCs”.

With `NS(=O)(=O)c1cccc2c1c([N+](=O)[O-])cc1[nH]c(=O)c(=O)[nH]c12` [NBQX, 2,3-Dioxo-6-nitro-1,2,3,4-tetrahydrobenzo[f]quinoxaline-7-sulfonamide], the “peripherally migrated OPCs at 3 dpf after neurotransmitter receptor antagonist” value in series [5] (36 to 72 hpf, olig2:dsred) is reported as “significant numbers of peripherally-migrated OPCs”.

With `Nc1nc2c(cnn2CCc2ccccc2)c2nc(-c3ccco3)nn12` [SCH-58261, 7-(2-phenylethyl)-5-amino-2-(2-furyl)-pyrazolo-[4,3-e]-1,2,4-triazolo[1,5-c]pyrimidine], in series [6], the “number of Eos+ cells per nerve compared with DMSO” value is given as “not significantly different”. The “percentage of motor nerves with sox10+/olig2+ MEP glia at the MEP TZ” value in series [3] (10 μM) is “no differences”. Moreover, the “olig2+ OPCs in the periphery of gpr126 mutants” value in series [7] (10 μM, 36 to 72 hpf, vs DMSO, p=0.009) is on record as “significant number of olig2^+ OPCs in the periphery”. In addition, the “MBP antibody labeling on peripheral nerves” value in series [7] (gpr126 mutants treated 36 to 72 hpf, fixed at 4 dpf) is on record as “MBP labeling was present further distally along the nerve”. Also, the “nerves with OPCs on which EGFP+ membrane tubes ensheathed most of the nerve root” value in series [7] (gpr126−/− mbp:egfp;olig2:dsred, imaged 72 to 86 hpf) turned out to be 7 nerves. In addition, in series [7] (setting [10]), the “additional nerves with OPCs already present at the beginning of the time-lapse” value was found to be 3 nerves and the “nerves onto which OPCs migrated out of the spinal cord during time-lapse” value was determined as 4 nerves. The “ensheathment of peripheral motor axons by nkx2.2a+/olig2+ OPCs (time-lapse)” value in series [7] (nkx2.2a:megfp;olig2:dsred;gpr126−/−, treated 36 to 72 hpf) was “initiate ensheathment of peripheral spinal motor axons”. In addition, the “number of peripheral olig2+ OPCs” value in series [5] (10 μM, p<0.01 compared to DMSO) is listed as “significant numbers of peripheral olig2^+ OPCs”. The “peripheral OPC migration by treatment window” value in series [5] (10 μM, exposure beginning later than 54 hpf or ending earlier than 54 hpf, counted at 3 dpf) is on record as “did not result in any peripheral OPC migration”. Besides, in series [5] (SCH-58261 36 to 72 hpf, olig2:dsred, treatment p<0.0001, genotype p=0.53), the “peripheral OPCs in WT or adora2aa−/− mutants” value was “observed peripheral OPCs in both genotypes”.

In the case of `CC1(C)[C@@H](OC(=O)CCC(=O)O)CC[C@]2(C)[C@H]3C(=O)C=C4[C@@H]5C[C@@](C)(C(=O)O)CC[C@]5(C)CC[C@@]4(C)[C@]3(C)CC[C@@H]12` [carbenoxolone], the “larvae that died at this dose” value in series [8] came to 9. In series [5] (10 μM, 36 to 72 hpf, counted at 72 hpf, p=0.04), the “peripherally-migrated OPCs, treatment alone versus combined with TeNT mRNA” value is listed as “more peripherally-migrated OPCs”. Further, the “peripherally-migrated OPCs at 3 dpf” value in series [5] (36 to 72 hpf, p<0.001 for 10 μM and p<0.0001 for 20 μM) is given as “significant numbers of peripherally-migrated OPCs”.
